Source: patent US20170251707A1, “PROCESS FOR THE PRODUCTION OF LOW COLORIE SWEETENER COMPOSITIONS AND USES THEREOF” (priority 2016, published 2017)
Where two headings read alike, the source gives them in different places.

Legend:
[1] = cited from earlier work
[2] = cited from earlier work; remark: listed apart in the source
[3] = cited from earlier work; remark: listed apart in the source
[4] = healthy and type 2 diabetic subjects, sucrose with 4% added L-Arabinose; cited from earlier work
[5] = acute (test meal) and sub chronic (twice a day for 9 week), after sucrose feeding; cited from earlier work
[6] = cited from earlier work; remark: listed apart in the source
intestinal sucrase = conditions: porcine intestinal mucosa, in vitro; cited from earlier work
[7] = rats, HCHF diet; cited from earlier work
[8] = humans, after six months; cited from earlier work
[9] = pre-exercise ingestion; cited from earlier work
[10] = alone or in combination with fructose, compared with glucose alone; cited from earlier work
[11] = blood plasma testing; cited from earlier work
[12] = HFD-fed mice; cited from earlier work
[13] = continuous intravenous, 1 g/kg body weight, human subjects; cited from earlier work
[14] = In vivo study: test beverage, postprandial glucose and insulin responses; parameters: species or system people; conditions: versus 25 g sucrose control, p=0.0001
Procedure: FIGS. 3 and 4 represent the outcome of an in vivo study performed using 15 previously selected people. Selected subjects arrived at the labs between 8 am and 9:45 am, and the start time for each subject was kept as similar as possible. After being weighed, 2 fasting blood samples at 5 min intervals were collected; subjects started to consume a test beverage (sweetener mixed with water) which was consumed in its entirety within 5 min. A timer was started at the first sip of the beverage, and further capillary blood samples were obtained at t=15, 30, 45, 60, 90 and 120±2 min, for the determination of glucose and insulin concentrations. Blood samples were collected into 2 separate vials: one (2-3 drops blood) for glucose analysis and the other (8-10 drops of blood) for insulin. Before and during the test, a blood glucose test record was filled out with the subject's initials, ID number, date, body weight, test meal, time of starting to eat, time it took to eat, time and composition of last meal, and any unusual activities. At the beginning and end, participants were asked to fill out a symptom questionnaire. During the 2 hours of the test, participants remain seated quietly. After the last blood sample was obtained participants were offered a snack and allowed to leave. […]

[15] = sucrose in combination with L-Arabinose versus sucrose
[16] = oral 15, 35 or 75 g in 250 ml, versus water alone

O=C[C@H](O)[C@@H](O)[C@H](O)[C@H](O)CO [D-glucose, reference compound]
incremental area under the glucose response curve (AUC) ([1]; oral 15 or 75 g in 250 ml): significant dose-dependent increase
incremental area under the insulin response curve (AUC) ([1]; oral 15 or 75 g in 250 ml): significant dose-dependent increase
reduction in blood glucose levels ([2]; after 180 minute): 20%
increment / elevation of blood glucose levels ([2]; healthy human subjects): 52%

OC[C@@H](O)[C@@H](O)CO [Erythritol, (2R,3S)-butane-1,2,3,4-tetraol]
excretion ([3]; human metabolism, for the most part): excreted unchanged in the urine
absorption ([3]; human metabolism): absorbed into the bloodstream in the small intestine
increases in blood sugar levels ([3]; in vivo): does not induce increases
laxative effects ([3]; in vivo): does not normally cause laxative effects
tooth decay ([3]; in vivo): does not cause
gastric side effects ([3]; unlike other sugar alcohols): unlikely to cause

O=C[C@H](O)[C@@H](O)[C@@H](O)CO [L-Arabinose]
increases in plasma glucose [4]: reduced
increases in serum insulin [4]: reduced
blood glucose [5]: suppressed
liver triacylglycerol concentrations ([6]; rats fed with sucrose, additional feeding of L-Arabinose): prevented this increase
blood glucose response [6, 15]: suppressed
insulin response [6, 15]: suppressed
effect on intestinal sucrase activity (intestinal sucrase): inhibitory effect
body weight, lee's index, visceral index [7]: lower
dyslipidemia, insulin resistance, inflammation, and viscera function [7]: improve
diastolic blood pressure [8]: slightly decreased
high-density lipoprotein cholesterol [8]: slightly increased
waist circumference, total cholesterol, fasting glucose, serum uric acid, low-density lipoprotein cholesterol [8]: decreased

OC[C@H]1O[C@H](O[C@H]2O[C@H](CO)[C@@H](O)[C@H](O)[C@H]2O)[C@H](O)[C@@H](O)[C@@H]1O [Trehalose]
insulin response prior to exercise [9]: lower
plasma glucose response prior to exercise [9]: lower
prevalence of rebound hypoglycemia [9]: reduced
glycemic response [10]: lower
insulinemic response [10]: lower
influence on blood glucose levels [11]: almost flat response
adipocyte hypertrophy [12]: prevents
insulin resistance [12]: mitigates

O=C[C@H](O)[C@@H](O)[C@@H](O)[C@H](O)CO [galactose, reference compound]
insulin response prior to exercise [9]: lower
plasma glucose response prior to exercise [9]: lower
prevalence of rebound hypoglycemia [9]: reduced

OCC(O)CO [glycerol]
insulin response [1, 16]: did not differ significantly from those after water alone
plasma glucose response [1, 16]: did not differ significantly from those after water alone
serum insulin concentration [13]: did not result in an increased

OC[C@H]1O[C@H](O[C@]2(CCl)O[C@H](CCl)[C@@H](O)[C@@H]2O)[C@H](O)[C@@H](O)[C@H]1Cl [sucralose]
postprandial insulin responses (FIG. 5) [14]: significantly lower than sucrose
